The subject of one series is Ustilago maydis. How it is done: (§1) iii. In Vitro Antifungal Assays • In vitro antifungal assays were performed in RPMI-1640 medium by broth micro dilution according to the Clinical and Laboratory Standards Institute (CLSI, formerly NCCL) methods M27-A3 and M-38-A2. […] Amphotericin B was used as positive control.
In the next series the test system is Aspergillus niger. How it is done: as §1
In a further series the test system is Fusarium oxysoprum. As for the experimental part:
as §1

In another series the test system is Candida albicans. As for the experimental part: as §1
Another series has as its system Neurospora crassa. As for the experimental part: as §1
Another series relates to Cryptococcus. How it is done: as §1
The test system of another series is Escherichia coli. Briefly: microbe, parasite or virus in culture. The format is cell-based.
The subject of another series is Staphylococcus aureus. Briefly: microbe, parasite or virus in culture. The series is classed as cell-based.
In another series the test system is Pseudomonas aeruginosa. The series is described as follows: microbe, parasite or virus in culture. The format is cell-based.
The test system of another series is Salmonella enterica. The series is described as follows: Inhibitory activity against bacteria (MIC 90). The series is classed as cell-based.
Series [1] has as its system Candida albicans cells. The series is described as follows: ROS generation (DCFH-DA fluorescence). The format is cell-based. Conditions: peptides at their respective MICs, FIG. 6. As for the experimental part:
(§2) FIG. 6 depicts the membrane damage and reactive oxygen species (ROS) generation by the instant peptides (a) Untreated Control, (b) positive control (c) […] (known peptide sequence, not novel, not to be covered in the invention, was used only for comparison), (d)Seq IDNo. 2, (e) Seq IDNo. 3 and (f) Seq IDNo. 1, after incubation of peptides at their respective MICs with the Candida albicans cells. i. Membrane Damage and ROS Generation • The membrane damage and formation of ROS (Reactive oxygen species) are the antifungal mechanisms of a number of antimicrobial peptides. The membrane damage (middle panel) and ROS generation by the instant peptides (right panel) was monitored after incubation of peptides at their respective MICs with the Candida albicans cells as depicted in FIG. 6(a-f). A red fluorescence resulting from the membrane impermeable DNA binding dye propidium iodide was observed indicating the membrane damage in the cells due to action of peptides under study. A green fluorescence resulting from the oxidation of dye Dichloro-dihydro-fluorescein diacetate DCFH-DA (non-fluorescent molecule) into DCF 2',7'-dichlorofluorescein. (fluorescent molecule) was observed indicating the presence of ROS.

In another series the test system is Yeast-Hypha transition. The series is described as follows: Yeast-Hypha transition inhibition. Conditions: at 4 μg/ml; Table 10 has no title. The format is cell-based. As for the experimental part: ii. Yeast-Hypha Transition Inhibition. • The peptides were also tested for the Yeast-Hypha transition inhibition. In many human and plant pathogenic fungi direct correlation between the ability of fungus to switch between yeast (Y) and hypha (H) forms and pathogenicity have been reported (Jacobsen et al., 2012; Thompson et al., 2011; Nadal et al., 2008).

Series [2] deals with Candida albicans cells. The series is described as follows: Membrane damage (propidium iodide fluorescence). The format is cell-based. Conditions: peptides at their respective MICs, FIG. 6. How it is done: as §2
The test system of series [3] is human and plant pathogens. The series is described as follows: In vitro antifungal assays, all cultures tested. The series is classed as cell-based. Conditions: human and plant pathogenic fungi. As for the experimental part: as §1
The next series concerns human erythrocyte. The series is described as follows: Hemolytic activity, release of haemoglobin from erythrocyte suspensions in PBS. The series is classed as cell-based. Particulars: human erythrocytes. How it is done:
The toxicity of the present cationic, alpha-helical antimicrobial peptides on blood cells to determine their suitability for systemic application was performed. Lysis of erythrocyte membranes was determined by monitoring the release of haemoglobin from human erythrocyte suspensions in PBS, in relation to complete (100%) haemolysis. Table 13(a) provides the % hemolytic activity observed when a series of concentrations of the present peptides were brought in contact with erythrocytes. There was absence of any hemolytic activity upto concentrations in the range of 130 to 200 μg/mL. However at concentration above 250 μg/mL, a minimal level of hemolysis was observed.

The subject of a further series is Hela cells. Briefly: MTT assay, cytotoxicity. The series is classed as cell-based, human. Particulars: concentration not given. How it is done: (§3) The cytolytic acivity of the present peptides was assessed by the MTT (3-(4,5-dimethylthiazol-2-yl)-2,5-diphenyltetrazolium bromide) assay against human cell lines (Hela cells). The cytotoxicity of on HeLa cells was assessed Approximately 10^4 cells per well were seeded in a 96-well plate and incubated for 12-16 h at 37° C.

Another series can be described thus: MTT assay, cytotoxicity. The format is cell-based, human. Conditions: human, HeLa cells, concentration not given. How it is done:
as §3
In general terms: Tetrazolium dyes change colour on reduction, which living cells bring about.

Series [4] relates to Gram positive and Gram negative bacteria. Briefly: Inhibitory activity against bacteria, all cultures. The series is classed as cell-based.

Values after ≈ are worked out from the molar mass of the structure shown. Where two headings read alike, the source gives them in different places. No end group written: not given here.

Broadly, the viability is the share of living cells, or the viability signal relative to a control. Read a low viability as a greater loss of cells.

Take `C[C@@H]1[C@H](O)[C@@H](C)/C=C/C=C/C=C/C=C/C=C/C=C/C=C/[C@H](O[C@@H]2O[C@H](C)[C@@H](O)[C@H](N)[C@@H]2O)C[C@@H]2O[C@](O)(C[C@@H](O)C[C@@H](O)[C@H](O)CC[C@@H](O)C[C@@H](O)CC(=O)O[C@H]1C)C[C@H](O)[C@H]2C(=O)O` [Ampho B, Amphotericin B, reference compound]: the “MIC 90” value with Ustilago maydis (Ustilago maydis, RPMI-1640) turned out to be 4 µg/mL (≈ 4.33 µM); in the series on Aspergillus niger (Aspergillus niger, RPMI-1640) it was 8 µg/mL (≈ 8.66 µM); with Fusarium oxysoprum (Fusarium oxysoprum, RPMI-1640), 8 µg/mL (≈ 8.66 µM); with Candida albicans (Candida albicans, RPMI-1640), 4 µg/mL (≈ 4.33 µM); against Neurospora crassa (Neurospora crassa, RPMI-1640), 4 µg/mL (≈ 4.33 µM); against Cryptococcus (Cryptococcus, RPMI-1640), 4 µg/mL (≈ 4.33 µM).

`CC1(C)S[C@@H]2[C@H](NC(=O)[C@H](N)c3ccccc3)C(=O)N2[C@H]1C(=O)O` [Ampicillin, ampicillin, reference compound]: the MIC 90 with Escherichia coli (Escherichia coli, read-out: MIC 90) is 4 µg/mL (≈ 11.4 µM); in the series with Staphylococcus aureus (Staphylococcus aureus, read-out: MIC 90), 2 µg/mL (≈ 5.72 µM); with Pseudomonas aeruginosa (Pseudomonas aeruginosa, read-out: MIC 90) it was 2 µg/mL (≈ 5.72 µM); with Salmonella enterica (read-out: MIC 90), 4 µg/mL (≈ 11.4 µM).

As to “FKLRAKIKVRLRAKIKL [D4E1, reference compound]”, the “MIC 90” value turned out to be 2 µg/mL in the series with Escherichia coli; 32 µg/mL in the series with Ustilago maydis; 16 µg/mL in the series with Aspergillus niger; 16 µg/mL in the series on Fusarium oxysoprum; 8 µg/mL against Candida albicans; 8 µg/mL with Neurospora crassa. Besides, the “MIC 90” value against Cryptococcus was 4 µg/mL; against Staphylococcus aureus, 2 µg/mL; in the series with Pseudomonas aeruginosa it was 2 µg/mL. In addition, the ROS generation result in the series with Candida albicans cells [1] is reported as “higher”. Besides, the Y-H transition inhibition in the series with Yeast-Hypha transition was 95.2%. Moreover, the “Relative potency in membrane damage and ROS generation” value in the series on Candida albicans cells [2] is given as “more potent”. Also, in [3], the “Antifungal potency in words, all the cultures tested” value is on record as “most potent”.

Consider FRLKFHLKF-NH2 [Seq Id No: 2], for which the “MIC 90” value against Escherichia coli came to 2 µg/mL; against Ustilago maydis it was 16 µg/mL; with Aspergillus niger, 16 µg/mL; in the series on Fusarium oxysoprum, 8 µg/mL; in the series on Candida albicans, 8 µg/mL; against Neurospora crassa it was 8 µg/mL. The “MIC 90” value with Cryptococcus worked out at 4 µg/mL; against Staphylococcus aureus, 2 µg/mL; in the series with Pseudomonas aeruginosa it was 2 µg/mL; in the series with Salmonella enterica, 2 µg/mL. Also, the Hemolytic activity in the series with human erythrocyte (256 μg/mL) is on record as 2%; with human erythrocyte (512 μg/mL), 3.2%^; in the series with human erythrocyte (1024 μg/mL) it was 7%. For the same molecule, the “O.D. (Treated Cells)” value in the series on Hela cells was 1.0185. Moreover, the viability in “MTT assay, cytotoxicity” came to 100%.

For VLKKLKKLC-NH2 [Seq Id No: 3], the “MIC 90” value in the series with Escherichia coli was 2 µg/mL; with Ustilago maydis, 32 µg/mL; against Aspergillus niger, 16 µg/mL; against Fusarium oxysoprum, 32 µg/mL; in the series with Candida albicans it was 64 µg/mL; against Neurospora crassa it was 16 µg/mL. The “MIC 90” value with Cryptococcus is 16 µg/mL; against Staphylococcus aureus it was 4 µg/mL; with Pseudomonas aeruginosa it was 4 µg/mL; in the series on Salmonella enterica, 2 µg/mL. The “Potency towards Gram positive versus Gram negative bacteria” value in [4] was “higher potency towards Gram positive”. In addition, the figures for the Hemolytic activity in the series with human erythrocyte (256 μg/mL), with human erythrocyte (512 μg/mL) and with human erythrocyte (1024 μg/mL) were 2%, 2.9% and 5.7%, respectively. Moreover, the “O.D. (Treated Cells)” value in the series with Hela cells came out at 0.8325. This molecule also displayed a viability in the series “MTT assay, cytotoxicity” of 88%. For the same molecule, the Y-H transition inhibition in the series with Yeast-Hypha transition is reported as 87.5%. For the same molecule, the “Antifungal potency in words, all the cultures tested” value in series [3] is “moderate activity”.

The values are drawn from patent US20180141987A1, “Novel Synthetic Antimicrobial Peptides” (priority 2014, published 2018).
